Structures can show the parent of a compound that is named as a salt.
What follows are molecules tested against recombinant human HPK1 (Homo sapiens (Human), UniProt Q92918) (assay: HPK1 kinase assay (ADP-Glo)). Conditions: 25 μM ATP, MBP substrate.
Assay type: biochemical
Summary of the method: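 Activity was read as ADP formed, detected by ADP-Glo luminescence after the reaction of 5 ng recombinant human HPK1 with MBP and ATP (stocks 0.5 μg/μl and 25 μM) for 40 min at 30 °C. Buffer was Tris pH 7.5 with MgCl2, BSA and DTT, with compound in 0.5% DMSO. IC50 came from inhibition curves.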

Chain of recombinant human HPK1 (Q92918 whole entry): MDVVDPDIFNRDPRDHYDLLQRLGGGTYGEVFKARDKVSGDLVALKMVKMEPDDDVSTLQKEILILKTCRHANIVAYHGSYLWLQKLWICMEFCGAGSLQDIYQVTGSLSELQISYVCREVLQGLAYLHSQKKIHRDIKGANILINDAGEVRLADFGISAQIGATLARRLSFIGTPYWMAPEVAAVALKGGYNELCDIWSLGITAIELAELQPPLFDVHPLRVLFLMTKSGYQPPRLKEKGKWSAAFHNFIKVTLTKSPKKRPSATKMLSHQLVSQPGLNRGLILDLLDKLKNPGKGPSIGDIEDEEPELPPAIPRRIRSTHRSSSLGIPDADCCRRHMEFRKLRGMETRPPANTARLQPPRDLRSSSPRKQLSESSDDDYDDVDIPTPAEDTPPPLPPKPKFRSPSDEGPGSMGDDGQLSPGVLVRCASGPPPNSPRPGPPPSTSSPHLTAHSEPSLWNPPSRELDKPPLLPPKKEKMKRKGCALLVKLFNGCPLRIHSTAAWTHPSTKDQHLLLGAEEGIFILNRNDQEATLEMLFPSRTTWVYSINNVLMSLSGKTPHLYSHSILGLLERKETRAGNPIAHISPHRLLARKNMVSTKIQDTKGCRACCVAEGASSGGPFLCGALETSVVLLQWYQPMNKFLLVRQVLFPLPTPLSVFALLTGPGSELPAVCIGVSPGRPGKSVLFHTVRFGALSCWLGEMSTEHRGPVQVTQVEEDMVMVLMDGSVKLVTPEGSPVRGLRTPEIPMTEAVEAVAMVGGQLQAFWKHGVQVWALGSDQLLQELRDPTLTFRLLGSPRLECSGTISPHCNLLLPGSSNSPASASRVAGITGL

IC50, < 100 nM:
Cc1c(F)c(F)c2[nH]ncc2c1-c1ccc2nc(NC(=O)[C@@H]3C[C@@H]3F)cn2c1 [Example 262, (1S,2S)-N-(6-(6,7-difluoro-5-methyl-1H-indazol-4-yl)imidazo[1,2-a]pyridin-2-yl)-2-fluorocyclopropane-1-carboxamide]
CCc1c(F)cc2[nH]ncc2c1-c1ccc2nc(NC(=O)[C@@H]3C[C@@H]3F)cn2c1 [Example 294, (1S,2S)-N-(6-(5-ethyl-6-fluoro-1H-indazol-4-yl)imidazo[1,2-a]pyridin-2-yl)-2-fluorocyclopropane-1-carboxamide]
CCN(CC)c1c(F)c(Cl)c(-c2ccc3nc(NC(=O)[C@@H]4C[C@@H]4F)sc3n2)c2cn[nH]c12 [Example 154, (1S,2S)-N-(5-(5-chloro-7-(diethylamino)-6-fluoro-1H-indazol-4-yl)thiazolo[5,4-b]pyridin-2-yl)-2-fluorocyclopropane-1-carboxamide]
CCOc1cc(C)c(-c2ccn3nc(NC(=O)[C@@H]4C[C@@H]4F)cc3c2)c2cn[nH]c12 [Example 511, (1S,2S)-N-(5-(7-ethoxy-5-methyl-1H-indazol-4-yl)pyrazolo[1,5-a]pyridin-2-yl)-2-fluorocyclopropane-1-carboxamide]
CSc1c(F)c(Cl)c(-c2ccn3nc(NC(=O)[C@@H]4C[C@@H]4F)cc3c2)c2cn[nH]c12 [Example 485, (1S,2S)-N-(5-(5-chloro-6-fluoro-7-(methylthio)-1H-indazol-4-yl)pyrazolo[1,5-a]pyridin-2-yl)-2-fluorocyclopropane-1-carboxamide]
CN(C)c1c(F)c(Cl)c(-c2ccn3nc(NC(=O)NC4CC4)cc3c2)c2cn[nH]c12 [Example 647, 1-(5-(5-chloro-7-(dimethylamino)-6-fluoro-1H-indazol-4-yl)pyrazolo[1,5-a]pyridin-2-yl)-3-cyclopropylurea]
O=Cc1c(F)c(Cl)c(-c2ccn3nc(NC(=O)[C@@H]4C[C@@H]4F)cc3c2)c2cn[nH]c12 [Example 626, (1S,2S)-N-(5-(5-chloro-6-fluoro-7-formyl-1H-indazol-4-yl)pyrazolo[1,5-a]pyridin-2-yl)-2-fluorocyclopropane-1-carboxamide]
CSc1c(F)c(F)c2[nH]ncc2c1-c1ccc2nc(NC(=O)[C@@H]3C[C@@H]3F)sc2n1 [Example 187, (1S,2S)-N-(5-(6,7-difluoro-5-(methylthio)-1H-indazol-4-yl)thiazolo[5,4-b]pyridin-2-yl)-2-fluorocyclopropane-1-carboxamide]
CCc1c(F)c(F)c2[nH]ncc2c1-c1ccc2nc(NC(=O)[C@@H]3C[C@@H]3F)sc2n1 [Example 176, (1S,2S)-N-(5-(5-ethyl-6,7-difluoro-1H-indazol-4-yl)thiazolo[5,4-b]pyridin-2-yl)-2-fluorocyclopropane-1-carboxamide]
CSc1c(F)c(F)c2[nH]ncc2c1-c1ccc2nc(NC(=O)[C@@H]3C[C@@H]3F)sc2c1 [Example 117, (1S,2S)-N-(6-(6,7-difluoro-5-(methylthio)-1H-indazol-4-yl)benzo[d]thiazol-2-yl)-2-fluorocyclopropane-1-carboxamide 2,2,2-trifluoroacetate]
Cc1c(F)c(OCCN(C)C(N)=O)c2[nH]ncc2c1-c1ccn2nc(NC(=O)[C@@H]3C[C@@H]3F)cc2c1 [Example 539, (1S,2S)-2-fluoro-N-(5-(6-fluoro-5-methyl-7-(2-(1-methylureido)ethoxy)-1H-indazol-4-yl)pyrazolo[1,5-a]pyridin-2-yl)cyclopropane-1-carboxamide]
CN(Nc1c(F)c(Cl)c(-c2ccn3nc(NC(=O)[C@@H]4C[C@@H]4F)cc3c2)c2cn[nH]c12)C(=O)OC(C)(C)C [Example 542, tert-butyl 2-(5-chloro-6-fluoro-4-(2-((1S,2S)-2-fluorocyclopropane-1-carboxamido)pyrazolo[1,5-a]pyridin-5-yl)-1H-indazol-7-yl)-1-methylhydrazine-1-carboxylate]
CCOc1c(F)c(C)c(-c2ccc3nc(NC(=O)[C@@H]4C[C@@H]4F)cn3c2)c2cn[nH]c12 [Example 288, (1S,2S)-N-(6-(7-ethoxy-6-fluoro-5-methyl-1H-indazol-4-yl)imidazo[1,2-a]pyridin-2-yl)-2-fluorocyclopropane-1-carboxamide]
O=C(Nc1cn2cc(-c3c(Cl)c(F)c(C4CCCC4O)c4[nH]ncc34)ccc2n1)[C@@H]1C[C@@H]1F (stereo partly drawn) [Example 410, (1S,2S)-N-(6-(5-chloro-6-fluoro-7-(2-hydroxycyclopentyl)-1H-indazol-4-yl)imidazo[1,2-a]pyridin-2-yl)-2-fluorocyclopropane-1-carboxamide]
CCN(C)c1c(F)c(SC)c(-c2ccc3nc(NC(=O)[C@@H]4C[C@@H]4F)sc3n2)c2cn[nH]c12 [Example 218, (1S,2S)-N-(5-(7-(ethyl(methyl)amino)-6-fluoro-5-(methylthio)-1H-indazol-4-yl)thiazolo[5,4-b]pyridin-2-yl)-2-fluorocyclopropane-1-carboxamide]
CCc1c(F)c(SC)c2[nH]ncc2c1-c1ccn2nc(NC(=O)[C@@H]3C[C@@H]3F)cc2c1 [Example 513, (1S,2S)-N-(5-(5-ethyl-6-fluoro-7-(methylthio)-1H-indazol-4-yl)pyrazolo[1,5-a]pyridin-2-yl)-2-fluorocyclopropane-1-carboxamide dihydrochloride]
Cc1c(F)c(Cl)c2[nH]ncc2c1-c1ccn2nc(NC(=O)[C@@H]3C[C@@H]3F)cc2c1 [Example 479, (1S,2S)-N-(5-(7-chloro-6-fluoro-5-methyl-1H-indazol-4-yl)pyrazolo[1,5-a]pyridin-2-yl)-2-fluorocyclopropane-1-carboxamide]
CSc1c(F)c(N(C)C)c2[nH]ncc2c1-c1ccc2nc(NC(=O)[C@@H]3C[C@@H]3F)cn2c1 [Example 300, (1S,2S)-N-(6-(7-(dimethylamino)-6-fluoro-5-(methylthio)-1H-indazol-4-yl)imidazo[1,2-a]pyridin-2-yl)-2-fluorocyclopropane-1-carboxamide]
O=C(Nc1cc2cc(-c3c(Cl)c(F)c(N4CC[S+]([O-])CC4)c4[nH]ncc34)ccn2n1)[C@@H]1C[C@@H]1F [Example 635, (1S,2S)-N-(5-(5-chloro-6-fluoro-7-(1-oxidothiomorpholino)-1H-indazol-4-yl)pyrazolo[1,5-a]pyridin-2-yl)-2-fluorocyclopropane-1-carboxamide]
CC(NC(=O)C(F)F)c1c(F)c(Cl)c(-c2ccn3nc(NC(=O)[C@@H]4C[C@@H]4F)cc3c2)c2cn[nH]c12 (stereo partly drawn) [Example 665, (1S,2S)-N-(5-(5-chloro-7-(1-(2,2-difluoroacetamido)ethyl)-6-fluoro-1H-indazol-4-yl)pyrazolo[1,5-a]pyridin-2-yl)-2-fluorocyclopropane-1-carboxamide]
CCSc1c(F)c(Cl)c(-c2ccn3nc(NC(=O)[C@@H]4C[C@@H]4F)cc3c2)c2cn[nH]c12 [Example 621, (1S,2S)-N-(5-(5-chloro-7-(ethylthio)-6-fluoro-1H-indazol-4-yl)pyrazolo[1,5-a]pyridin-2-yl)-2-fluorocyclopropane-1-carboxamide]
Cc1c(F)c(C(F)F)c2[nH]ncc2c1-c1ccc2nc(NC(=O)[C@@H]3C[C@@H]3F)sc2n1 [Example 217, (1S,2S)-N-(5-(7-(difluoromethyl)-6-fluoro-5-methyl-1H-indazol-4-yl)thiazolo[5,4-b]pyridin-2-yl)-2-fluorocyclopropane-1-carboxamide]

IC50, 101 to 500 nM:
O=C(Nc1nc2ccc(-c3c(C4CC4)c(F)cc4[nH]ncc34)nc2s1)[C@@H]1C[C@@H]1F [Example 158, (1S,2S)-N-(5-(5-cyclopropyl-6-fluoro-1H-indazol-4-yl)thiazolo[5,4-b]pyridin-2-yl)-2-fluorocyclopropane-1-carboxamide]
CC(=O)c1c(F)c(C)c(-c2ccc3nc(NC(=O)[C@@H]4C[C@@H]4F)cn3c2)c2cn[nH]c12 [Example 322, (1S,2S)-N-(6-(7-acetyl-6-fluoro-5-methyl-1H-indazol-4-yl)imidazo[1,2-a]pyridin-2-yl)-2-fluorocyclopropane-1-carboxamide]
C[S+]([O-])c1c(F)c(Cl)c(-c2ccc3nc(NC(=O)[C@@H]4C[C@@H]4F)sc3n2)c2cn[nH]c12 (stereo partly drawn) [Example 180, (1S,2S)-N-(5-(5-chloro-6-fluoro-7-(methylsulfinyl)-1H-indazol-4-yl)thiazolo[5,4-b]pyridin-2-yl)-2-fluorocyclopropane-1-carboxamide]

IC50, > 1000 nM:
O=C(Nc1cn2cc(-c3c(CO)c(F)cc4[nH]ncc34)ccc2n1)C1CC1 [Example 251, N-(6-(6-fluoro-5-(hydroxymethyl)-1H-indazol-4-yl)imidazo[1,2-a]pyridin-2-yl)cyclopropanecarboxamide]
O=C(Nc1nc2ccc(-c3cc(F)c(OC(F)(F)F)c4[nH]ncc34)nc2s1)[C@@H]1C[C@@H]1F [Example 215, (1S,2S)-2-fluoro-N-(5-(6-fluoro-7-(trifluoromethoxy)-1H-indazol-4-yl)thiazolo[5,4-b]pyridin-2-yl)cyclopropane-1-carboxamide]
CN(C)C(=O)c1c(F)cc(-c2ccc3nc(NC(=O)[C@@H]4C[C@@H]4F)cn3c2)c2cn[nH]c12 [Example 354, 6-fluoro-4-(2-((1S,2S)-2-fluorocyclopropane-1-carboxamido)imidazo[1,2-a]pyridin-6-yl)-N,N-dimethyl-1H-indazole-7-carboxamide]
CN(C)CCOc1ccc2[nH]ncc2c1-c1ccc2nc(NC(=O)[C@@H]3C[C@@H]3F)sc2c1 [Example 31, (1S,2S)-N-(6-(5-(2-(dimethylamino)ethoxy)-1H-indazol-4-yl)benzo[d]thiazol-2-yl)-2-fluorocyclopropane-1-carboxamide]

Reference: patent publication US11649255B2, “Indazoles as hematopoietic progenitor kinase 1 (HPK1) inhibitors and methods using same” (1st Biotherapeutics, Inc., priority 2020, dated 2023)
